Laboratory results reported in article PMC7150891, “Mertansine Inhibits mRNA Expression and Enzyme Activities of Cytochrome P450s and Uridine 5′-Diphospho-Glucuronosyltransferases in Human Hepatocytes and Liver Microsomes” (Pharmaceutics, 2020).
“Also recorded” adds a separate entry of the source.

Columns and labels:
CYP2D6 = test system: CYP2D6; design: method as in PMID 25048520, PMID 22752008; conditions: human liver microsomes, competitive; read-out: Ki, CYP2D6-mediated dextromethorphan O-demethylation; cited from earlier work
CYP2B6 = assay: CYP2B6-catalyzed bupropion hydroxylase activity in human hepatocytes after 48 h treatment
Description: (§1) Samples were incubated for 48 h at 37 °C in 5% CO2, and the medium was exchanged with 250 μL of fresh medium containing drugs or the vehicle every 24 h.
(§2) The effects of mertansine on CYP1A2, CYP2B6, and CYP3A4 activities were evaluated. […] Mixtures were vortexed for 2 min and then centrifuged at 13,000 g for 4 min at 4 °C. The supernatant (40 µL) was diluted with 60 µL of deionized water and then mixed for 2 min by vortexing. An aliquot (5 µL) was analyzed using LC-MS/MS [37], and CYP1A2, CYP2B6, and CYP3A4 enzyme activities were expressed as formation rates (pmol/million cells/min).
(§3) The percentage changes in enzymatic activities were calculated as (CYP activity with test compound treatment/CYP activity with vehicle control treatment) × 100. The IC50 (the concentration of the inhibitor needed for half-maximal inhibition) values were calculated using SigmaPlot ver. […] Ki (the inhibition constant) and the inhibition mode of UGT1A1, UGT1A3, and UGT1A4 activities were determined using Enzyme Kinetics ver. 1.1 (Systat Software, Inc.).

CYP2C8 mRNA = CYP2C8 mRNA level in human hepatocytes after 48 h treatment (RT-PCR); conditions: plated cryopreserved human hepatocytes, IC50, suppression of CYP2C8 mRNA expression, 1.25–2500 nM
CYP1A2 = assay: CYP1A2-catalyzed phenacetin O-deethylase activity in human hepatocytes after 48 h treatment
Description: as §1, §2, §3

CYP3A4 = test system: CYP3A4
Description: as §1, §2, §3

UGT1A6 = molecular target: T1, UGT1A6 (Homo sapiens, UniProt P19224); assay: Inhibition of UGT1A6-catalyzed N-acetylserotonin β-D-glucuronidation in ultrapooled human liver microsomes; type: in vitro ADME
T1 construct: ultrapooled human liver microsomes (0.2 mg/mL); from tissue; host or cells: human liver microsomes (ultrapooled)
T1 sequence (P19224 27-532): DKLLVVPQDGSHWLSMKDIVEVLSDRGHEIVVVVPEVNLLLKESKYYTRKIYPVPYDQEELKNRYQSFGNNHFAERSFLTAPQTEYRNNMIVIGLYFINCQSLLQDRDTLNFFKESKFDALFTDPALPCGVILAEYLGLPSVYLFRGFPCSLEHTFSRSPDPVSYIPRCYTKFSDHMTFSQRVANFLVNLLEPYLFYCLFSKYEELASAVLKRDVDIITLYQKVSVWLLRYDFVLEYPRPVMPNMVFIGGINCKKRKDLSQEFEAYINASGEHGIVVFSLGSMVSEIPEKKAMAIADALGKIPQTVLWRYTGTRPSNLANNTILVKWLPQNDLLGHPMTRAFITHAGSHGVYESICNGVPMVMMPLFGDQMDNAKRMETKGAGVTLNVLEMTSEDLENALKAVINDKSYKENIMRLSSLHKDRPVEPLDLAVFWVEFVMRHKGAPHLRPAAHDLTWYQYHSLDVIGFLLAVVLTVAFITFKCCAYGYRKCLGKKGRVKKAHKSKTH
Description: The inhibitory potential of mertansine on UGT1A1, UGT1A3, UGT1A4, UGT1A6, UGT1A9, and UGT2B7 activities was evaluated using liquid chromatography–tandem mass spectrometry (LC-MS/MS) with a cocktail of UGT substrates and ultrapooled human liver microsomes. Each incubation mixture was prepared to a final volume of 100 μL as follows: ultrapooled human liver microsomes (0.2 mg/mL), 5 mM UDPGA, 10 mM magnesium chloride, alamethicin (25 μg/mL), 50 mM Tris buffer (pH 7.4), various concentrations of mertansine in methanol (final concentrations of 0.01–50 μM), and the cocktail sets of UGT enzyme-specific substrates. Two cocktail sets were used: set A contained 0.5 μM SN-38 for UGT1A1, 2 μM chenodeoxycholic acid for UGT1A3, and 0.5 μM trifluoperazine for UGT1A4; and set B contained 1 μM N-acetylserotonin for UGT1A6, 0.2 μM mycophenolic acid for UGT1A9, and 1 μM naloxone for UGT2B7. The reactions were initiated by adding UDPGA and incubated in a shaking water bath for 60 min at 37 °C. Reactions were terminated by adding 50 μL of ice-cold acetonitrile containing internal standards (IS, propofol glucuronide for set A and meloxicam for set B). Incubation mixtures were centrifuged at 13,000 g for 8 min at 4 °C. Next, 50 μL of each supernatant of sets A and B was mixed, and aliquots (5 μL) were analyzed using LC-MS/MS. […]

[1] = highest concentration (2500 nM), 48 h, mean of three human hepatocytes
[2] = mertansine 48 h, three human hepatocytes

For COc1cc2cc(c1Cl)N(C)C(=O)CC(OC(=O)C(C)N(C)C(=O)CCS)C1(C)OC1C(C)C1CC(O)(NC(=O)O1)C(OC)C=CC=C(C)C2 (stereo not shown) [mertansine, Mertansine], the Ki (CYP2D6) is given as 14000 nM, the “Mean decrease of CYP2B6-mediated bupropion hydroxylase activity” value (CYP2B6; [1]) is given as 63.5% and the “Decrease of CYP2B6-mediated bupropion hydroxylase activity compared to vehicle” value (CYP2B6; [2]) is given as 23.9–93.1%. For the same molecule, the IC50 at 48 h (CYP2C8 mRNA; Mean ± SD of three human hepatocyte lots, 48 h) was 32.1 ± 14.9 nM, the IC50 at 48 h (CYP2C8 mRNA; human hepatocytes Lot 319, 48 h) was 48.7 nM and the IC50 at 48 h (CYP2C8 mRNA; human hepatocytes Lot 321, 48 h) was 20 nM. For the same molecule, the IC50 at 48 h (CYP2C8 mRNA; human hepatocytes Lot 361, 48 h) was 27.5 nM, the “Mean decrease of CYP1A2-mediated phenacetin O-deethylase activity” value (CYP1A2; [1]) was 48.3% and the “Decrease of CYP1A2-mediated phenacetin O-deethylase activity compared to vehicle” value (CYP1A2; [2]) was 27.8–79.0%. The “Mean decrease of CYP3A4-mediated midazolam 1′-hydroxylase activity” value (CYP3A4; human, hepatocytes) was 39.7%, the “Decrease of CYP3A4-mediated midazolam 1′-hydroxylase activity compared to vehicle” value (CYP3A4; [2]) was 30.8–62.7% and the “Inhibition of UGT1A6 enzyme activity” value (UGT1A6; human liver microsomes, mertansine at 50 µM) was “no inhibition; also recorded: negligibly inhibited”. For the same molecule, the “IC50, N-acetylserotonin β-D-glucuronidation (UGT1A6)” value (UGT1A6; ultrapooled human liver microsomes, 1 µM N-acetylserotonin (cocktail)) was “No inhibition”.
